# Measurements from patent US20230277698A1, “SILICON-CONTAINING LIGAND COMPOUNDS” (Technische Universität München, priority 2020, published 2023).
# Tests used:
# LNCaP cells = test: Internalization studies on LNCaP cells; assay type: cell-based; conditions: 177Lu-labelled, c=1.0 nM, 1 hour, 37 °C; % of reference ligand ([125I]I-BA)KuE (c=0.2 nM); corrected for non-specific binding (PMPA); mean±SD, n=3-6
# Protocol: PSMA-positive LNCAP cells (300265; Cell Lines Service, Eppelheim, Germany) were cultivated in Dulbecco modified Eagle medium/Nutrition Mixture F-12 with Glutamax (1:1) (DMEM-F12, Biochrom, Berlin, Germany) supplemented with fetal bovine serum (10%, FBS Zellkultur, Berlin, Germany) and kept at 37° C. in a humidified CO2 atmosphere (5%). A mixture of trypsin and EDTA (0.05%, 0.02%) in PBS (Biochrom) was used in order to harvest cells. Cells were counted with a Neubauer hemocytometer (Paul Marienfeld, Lauda-Königshofen, Germany).
# For internalization studies, LNCaP cells were harvested 24±2 hours before the experiment and seeded in poly-L-lysine coated 24-well plates (1.25×10^5 cells in 1 mL/well, Greiner Bio-One, Kremsmünster, Austria). After removal of the culture medium, the cells were washed once with 500 μL DMEM-F12 (5% BSA) and left to equilibrate for at least 15 min at 37° C. in 200 μL DMEM-F12 (5% BSA). Each well was treated with either 25 μL of either DMEM-F12 (5% BSA, control) or 25 μL of a 100 μM PMPA (2-(Phosphonomethyl)-pentandioic acid, Tocris Bioscience, Bristol, UK) solution in PBS, for blockade. Next, 25 μL of the radioactive-labelled PSMA inhibitor (10.0 nM in PBS) was added and the cells were incubated at 37° C. for 60 min. The experiment was terminated by placing the 24-well plate on ice for 3 min and consecutive removal of the medium. Each well was carefully washed with 250 μL of ice-cold HBSS. Both fractions from the first steps, representing the amount of free radioligand, were combined. Removal of surface bound activity was accomplished by incubation of the cells with 250 μL of ice-cold PMPA (10 μM in PBS) solution for 5 min and rinsed again with another 250 μL of ice-cold PBS. The internalized activity was determined by incubation of the cells in 250 μL 1 M aqueous NaOH for at least 10 min. The obtained fractions were combined with those of the subsequent wash step with 250 μL 1 M aqueous NaOH. Each experiment (control and blockade) was performed in triplicate. Free, surface bound and internalized activity was quantified in a γ-counter. All internalization studies were accompanied by external reference studies, using ([^125I]l-BA)KuE (c=0.2 nM), which were performed analogously. Data were corrected for non-specific binding and normalized to the specific-internalization observed for the radioiodinated reference compound.
# Data is corrected for non-specific binding (10 μmol PMPA) and expressed as mean±SD (n=3-6): […]
# [1] = molecular target: human serum albumin (HSA) (Homo sapiens, UniProt P02768); test: HSA binding by radio inversed affinity chromatography (RIAC); assay type: in vitro ADME; conditions: 177Lu-labelled; Superdex 75 Increase 10/300 GL, 700 μM HSA in PBS, 0.8 mL/min
# Protocol: A gel filtration column Superdex 75 Increase 10/300 GL (GE Healthcare, Uppsala, Sweden) was beforehand calibrated following the producer's recommendations with a commercially available gel filtration calibration kit (GE Healthcare, Buckinghamshire, UK) comprising conalbumin (MW: 75 kDa), ovalbumin (44 kDa), carbonic anhydrase (29 kDa), ribonuclease A (13.7 kDa) and aprotinin (6.5 kDa) as reference proteins of known molecular weight. RIAC experiments were conducted using a constant flow rate of 0.8 mL/min at rt. A solution of HSA in PBS at physiological concentration (700 μM) was used as the mobile phase. PSMA ligands were labelled as described with molar activities of 10-20 GBq/μmol. Probes of 1.0 MBq of the radioligand were injected directly from the labelling solution. HSA binding was expressed as an apparent molecular weight MW calculated from the retention time of the radioligand using the determined calibration curve.
# The following table summarizes the underlying data. MW: molecular weight. tR: experimentally determined retention time. V: elution volume. Kav: partition coefficient.
# RIAC, in an inversed way, comprises ligand samples (radiolabeled PSMA ligands) and a protein (HSA) containing mobile phase. Ligand-specific retention is caused by interaction of the ligand probe and HSA in the mobile phase. Unbound species, due to a molecular weight beneath the molecular cut off of the gel filtration column, are maximally retained while bound species are eluted in accordance to the higher molecular weight of the ligand-HSA-complex (MWHSA: 66.47 kDa). Experiments show a single radiopeak indicating a dynamic process of formation and dissociation of the ligand-HSA-complex throughout the passage through the column bed. Accordingly, the absolute retention time is the result of the ligand's mean time of abidance at HSA which is directly defined by the ligand's binding kinetics and affinity toward HSA. For evaluation, experimentally determined retention times tR are first converted into elution volumes Ve by multiplying with the flow rate and thereafter converted into partition coefficients Kav following the equation
# where V0 is the column void volume (8.027 mL) and Vc is the geometric column volume (24 mL). Using the equation given by the trend line plot of the column calibration
# the apparent molecular weight MW is calculated as
# FIG. 7 and the table below show the results HSA-binding of lutetium-complexed PSMA-ligands and reference compounds determined by RIAC on a Superdex 75 Increase 10/300 GL column 700 μM HSA in PBS as solvent using a constant flow rate of 0.8 mL/min (plotted data, extracted from FIG. 8).
# FIG. 8 illustrates the determination of HSA binding via radio inverse affinity chromatography (RIAC). Correlation of apparent molecular weight (MW) in Dalton (Da) and retention time of ^177Lu-labeled samples, determined on a Superdex 75 Increase 10/300 GL with 700 μM HSA in PBS as solvent using a constant flow rate of 0.8 mL/min.
# Chain of human serum albumin (HSA) (P02768 25-609): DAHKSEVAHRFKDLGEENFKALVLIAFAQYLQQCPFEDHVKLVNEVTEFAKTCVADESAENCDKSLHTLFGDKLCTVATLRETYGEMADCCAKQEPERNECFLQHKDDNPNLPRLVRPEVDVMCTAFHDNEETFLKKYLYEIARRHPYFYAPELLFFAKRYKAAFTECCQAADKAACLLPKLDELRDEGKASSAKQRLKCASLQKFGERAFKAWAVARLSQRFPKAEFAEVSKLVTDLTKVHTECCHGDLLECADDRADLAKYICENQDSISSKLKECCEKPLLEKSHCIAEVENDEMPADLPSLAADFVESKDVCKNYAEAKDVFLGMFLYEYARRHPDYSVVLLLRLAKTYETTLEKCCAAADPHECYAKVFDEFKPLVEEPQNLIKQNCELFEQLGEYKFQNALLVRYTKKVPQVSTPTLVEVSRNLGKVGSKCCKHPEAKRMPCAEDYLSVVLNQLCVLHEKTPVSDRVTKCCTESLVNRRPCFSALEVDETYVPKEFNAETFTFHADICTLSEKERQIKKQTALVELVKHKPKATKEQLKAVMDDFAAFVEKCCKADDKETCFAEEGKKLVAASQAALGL
Structure (SMILES),Internalization (% IBA) (LNCaP cells),HSA-binding RIAC (apparent molecular weight) [1] [kDa]
CC(C)(C)[Si](O)(c1ccc(C(=O)NC[C@@H](NC(=O)CC[C@@H](C(=O)O)N2CCN(CC(=O)O)CCN(CC(=O)O)CCN(CC(=O)O)CC2)C(=O)NCC(=O)N[C@@H](CCCCNC(=O)CCC(=O)NCCC[C@@H](NC(=O)CC[C@H](NC(=O)N[C@@H](CCC(=O)O)C(=O)O)C(=O)O)C(=O)O)C(=O)O)cc1)C(C)(C)C [E102-SiOH],203 ± 15,9.3
"O=C(O)CC[C@H](NC(=O)N[C@@H](CCCCNC(=O)[C@H](Cc1ccc2ccccc2c1)NC(=O)[C@H]1CC[C@H](CNC(=O)CN2CCN(CC(=O)O)CCN(CC(=O)O)CCN(CC(=O)O)CC2)CC1)C(=O)O)C(=O)O [PSMA-617, reference compound]",160 ± 2,13.7
CC(C)(C)[Si](O)(c1ccc(C(=O)NC[C@@H](NC(=O)CCCCCNC(=O)CCCNC(=O)CC[C@@H](NC(=O)CCC(NC(=O)N[C@@H](CCC(=O)O)C(=O)O)C(=O)O)C(=O)O)C(=O)NCC(=O)N[C@@H](CCCCNC(=O)CC[C@@H](C(=O)O)N2CCN(CC(=O)O)CCN(CC(=O)O)CCN(CC(=O)O)CC2)C(=O)O)cc1)C(C)(C)C (stereo partly drawn) [E104-SiOH],103 ± 2,7.8
"CC(C)(C)[Si](F)(c1ccc(C(=O)NC[C@@H](NC(=O)CC[C@@H](C(=O)O)N2CCN(CC(=O)O)CCN(CC(=O)O)CCN(CC(=O)O)CC2)C(=O)N[C@H](CCCCNC(=O)CCC(=O)NCCC[C@@H](NC(=O)CC[C@H](NC(=O)N[C@@H](CCC(=O)O)C(=O)O)C(=O)O)C(=O)O)C(=O)O)cc1)C(C)(C)C [rhPSMA-7.3, reference compound]",162 ± 14,30.2
CC(C)(C)[Si](O)(c1ccc(C[N+](C)(C)CC(=O)NCCC[C@@H](NC(=O)CC[C@@H](C(=O)O)N2CCN(CC(=O)O)CCN(CC(=O)O)CCN(CC(=O)O)CC2)C(=O)NCCCCCC(=O)NCCC[C@@H](NC(=O)CC[C@H](NC(=O)N[C@@H](CCC(=O)O)C(=O)O)C(=O)O)C(=O)O)cc1)C(C)(C)C [P110-SiOH],46 ± 2,5.2
CC(C)(C)[Si](O)(c1ccc(C(=O)N[C@H](CCC(=O)NC[C@@H](NC(=O)CC[C@@H](C(=O)O)N2CCN(CC(=O)O)CCN(CC(=O)O)CCN(CC(=O)O)CC2)C(=O)NCCCCCC(=O)NCCC[C@@H](NC(=O)CC[C@H](NC(=O)N[C@@H](CCC(=O)O)C(=O)O)C(=O)O)C(=O)O)C(=O)O)cc1)C(C)(C)C [P105-SiOH],185 ± 4,10.4
"CC(C)(C)[Si](F)(c1ccc(C(=O)NC[C@@H](NC(=O)CN2CCN(CC(=O)O)CCN(CC(=O)O)CCN(CC(=O)O)CC2)C(=O)N[C@H](CCCCNC(=O)CCC(=O)NCCC[C@@H](NC(=O)CC[C@H](NC(=O)N[C@@H](CCC(=O)O)C(=O)O)C(=O)O)C(=O)O)C(=O)O)cc1)C(C)(C)C [rhPSMA-10, reference compound]",231 ± 57,25.4
CC(C)(C)[Si](O)(c1ccc(C(=O)NC[C@@H](NC(=O)CC[C@@H](C(=O)O)N2CCN(CC(=O)O)CCN(CC(=O)O)CCN(CC(=O)O)CC2)C(=O)N[C@H](CO)C(=O)NCCC(=O)NCCC(=O)NCCC[C@@H](NC(=O)CC[C@H](NC(=O)N[C@@H](CCC(=O)O)C(=O)O)C(=O)O)C(=O)O)cc1)C(C)(C)C [C007-SiOH],185 ± 15,8.0
CC(C)(C)[Si](O)(c1ccc(C(=O)NC[C@@H](NC(=O)CC[C@@H](C(=O)O)N2CCN(CC(=O)O)CCN(CC(=O)O)CCN(CC(=O)O)CC2)C(=O)N[C@H](CCCCNC(=O)CCC(=O)NCCC[C@@H](NC(=O)CC[C@H](NC(=O)N[C@@H](CCC(=O)O)C(=O)O)C(=O)O)C(=O)O)C(=O)O)cc1)C(C)(C)C [7.3-SiOH],225 ± 23,10.1
